Experimental data reported in patent publication US20070117180A1, “Enzyme producing plasma protein fragment having inhibitory activity to metastasis and growth of cancer and plasma protein fragment produced by fragmentation by said enzyme” (priority 1998, published 2007).

Key:
Lewis lung cancer cells = test: Inhibitory activity of PACE4 to growth of metastasized cancerous focus in immunodeficient mice (lung weight, FIG. 9); assay type: in vivo, immunodeficient (Scid) mice
Text: As a system for estimating inhibitory effects to growth of metastasized cancerous focus of PACE4 per se, immunodeficient (Scid) mice were employed. Lung cancer cells (3LL; provided from Cell Resource Center for Biomedical Research, Institute of Development, Aging and Cancer, Tohoku University) were subcutaneously transplanted to Scid mice at the back. The animals were bred until a primary cancerous focus grows up to a predetermined size. So that severity of disease conditions is taken into consideration, mice were divided into two groups based on the size of a primary cancerous focus; one with a primary cancerous focus weighing not more than 1200 mg and the other with a primary cancerous focus weighing more than 1200 mg. The primary cancerous focus in each group was removed surgically. Each group was then further divided into three groups: a group receiving a high or low concentration of PACE4, and a control group. The sample was administered to mice intraperitoneally at 40 μg/mouse/day or 8 μg/mouse/day for 10 days. As a control, the same amount of physiological saline, as used for dissolving the lyophilized sample, was administered to mice.
After completion of test, mice were dissected and the lung was weighed and compared with the control group (Mann Whetney U test).
To immunodeficient mice of 6 weeks old were transplanted subcutaneously 10^6 Lewis lung cancer cells (LL/2) at the back. The animals were bred for 14 to 17 days and cancer (primary cancerous focus) formed at the back was surgically removed. Based on size of the primary cancerous focus formed, the animals were divided into two groups: one with the primary cancerous focus of not more than 1200 mg (200 mg to 1200 mg) and the other of more than 1200 mg (1201 mg to 2500 mg). Each of these two groups was further divided into three groups: ones that received a high or low dose of the enzyme of the present invention (PACE4) and control. […]

plasminogen = test: Fragmentation of plasminogen by purified PACE4 at pH 7.0 or pH 4.0 (FIG. 6); assay type: biochemical, human; details: reacted at neutral and acidic ranges of pH
Method: FIG. 6 depicts fragmentation patterns of plasminogen when reacted at neutral and acidic ranges of pH. […] In FIG. 6, the arrow A (→A) indicates a band corresponding to angiostatin from PC-3 according to Gately et al. whereas the arrow B (→B) indicates a band corresponding to a fragment comprising Kringles 1 to 4 produced by PACE4. […] The N-terminal amino acid residue of each fragment was analyzed to be F-74 for A, P-452 for B and A-700 for C, respectively.

plasmin = test: Remaining plasmin activity after cleavage by PACE4 (FIG. 8); assay type: biochemical; details: with passage of time of cleavage by PACE4
Text: Moreover, the enzyme of the present invention, producing angiostatin that comprises Kringles 1 to 4, also cleaves plasmin in the vicinity of its active center (between the 699th Phe and 700th Ala) to let plasmin be inactivated. This cleaving property of the enzyme is quite significant in view of efficient protection against cancer development. This is because angiostatin that inhibits growth of cancer is produced by fragmentation of plasminogen while the simultaneously produced active center of plasmin (plasmin serine protease domain) possibly further promotes cancer development. In addition, it is possible that vascularization and cancer invasion accelerated by the plasmin activity is further accelerated by removal of the Kringle domains. This is because such removal of the Kringle domains would attenuate the inhibitory activity of plasmin-inhibitory proteins occurring within the living body, including alpha 2 plasmin inhibitor (hereinafter referred to as “α2-PI”). Plasmin present in plasma is immediately inactivated by α2-PI circulating in the blood stream wherein the Kringle domains serve as a binding site between plasmin and α2-PI. Deprivation of the domains much reduces the activity of […]. […]

[1] = test system: bovine aorta endothelial (BAE) cells; test: Test for inhibitory activity to growth of vascular endothelial cells, bovine aorta endothelial cells; assay type: cell-based; design: dose or concentration left out as unconfirmed; details: cell count after 72 hours; plasminogen fragments
Method: The activity of the plasminogen fragments was also estimated as described by O'Reilly et al. using bovine aorta endothelial (BAE) cells purchased from Sanko Jun-yaku K.K. BAE cells were cultured for maintenance on a 24-well plate (manufactured by Iwaki Glass K.K.) coated with gelatin in a DMEM basal medium containing 10% fetal calf serum (FCS), 3 ng/ml basic FGF (bFGF), 1% glutamine, 1% penicillin and 1% streptomycin at 5% CO2. BAE cells were plated on a 24-well gelatin-coated plate at 12,500 cells/well and cultured on the basal medium deprived of bFGF for 24 hours. […] contained 5% FCS but was deprived of bFGF and the plasminogen fragments were reacted with the cells at 37° C. for 20 minutes. A physiological saline was used as a negative control whereas angiostatin (Angiostatin, manufactured by Technoclone) was used as a positive control. After reaction, the basal medium containing 5% FCS and 2 ng/ml bFGF was added and the cells were cultured at 37° C. for additional 72 hours. The cells were peeled off the well with trypsin/EDTA solution and counted with Coulter counter (manufactured by Coulter).

[2] = test system: vascular endothelial cells; test: Inhibitory activity to growth of the vascular endothelial cells of plasma protein fragments produced by PACE4; assay type: cell-based; details: as described in Example 13
Text: (§1) The present inventors focused on fibronectin, a plasma component that is produced in great deal under cancerous conditions and is deeply involved in cell adhesion, and cleaved this with the enzyme of the present invention. […] The degraded products produced by the enzyme from fibronectin were separated with heparin Sepharose (Pharmacia). […] The obtained degraded products were estimated for their inhibitory activity to vascularization in the vascular endothelial cell system as described above.
Moreover, the present inventors also cleaved several kinds of fractions obtained from alcoholic fractionation of plasma proteins with the enzyme of the present invention. Alcohol was removed from alcoholic fractions by dialysis, followed by dialysis with citric phosphate buffer (pH 4.0). The resulting fractions were mixed with the enzyme at a ratio of the protein to the enzyme, 100:1, and the mixture was reacted at 38° C. overnight. […]
A test for inhibitory activity to growth of vascular endothelial cells was performed as described by Gately et al. using Human Umbilical vein endothelial (HUV) cells (HUVEC; Sanko Jun-yaku K.K.). […] The cells were peeled off the well with trypsin/EDTA solution and counted with Coulter counter (manufactured by Coulter). […]

[3] = test system: BCE (Bovine capillary endothelial); test: Inhibition of BCE vascular growth by fibronectin degraded products; assay type: cell-based
Text: as §1

Q: Which results are given for “PACE4: about 45 kDa aspartic enzyme purified from PC-3 culture supernatant, N-terminus LVRIPLHKFT, high homology to human cathepsin D precursor”?
A: inhibitory activity to growth of metastasized cancerous focus (lung weight) (Lewis lung cancer cells; primary cancerous focus more than 1200 mg (B), 40 or 8 μg/mouse/day i.p. for 10 days, 3LL cells): exhibited inhibitory activity to growth of metastasized cancerous focus in a concentration dependent manner; inhibitory activity to increase in lung weight (Lewis lung cancer cells; primary cancerous focus more than 1200 mg, 10 or 2 μg/animal i.p. for 10 days, LL/2 cells): observed in a dose dependent manner; lung weight, PACE4 administration versus control (Lewis lung cancer cells; primary cancerous focus not more than 1200 mg, 10 or 2 μg/animal i.p. for 10 days, LL/2 cells): no significant difference; pH range at which plasminogen is fragmented (plasminogen): only at an acidic range of pH; remaining plasmin activity (plasmin): plasmin activity disappears

Q: angiostatin [reference compound] was tested. Which “inhibitory activity to growth of the vascular endothelial cells” value [1] did it give?
A: exhibited the inhibitory activity

Q: With fibronectin as the substance, how does the “growth of the vascular endothelial cells (FIG. 15)” value [2] read?
A: no such inhibitory activity

Q: What about the “inhibitory ability to BCE vascular growth” value [3] of the same substance?
A: not found
